Experimental data reported in patent US6201006A, “Aromatic amidine derivatives useful as selective thrombin inhibitors” (C & C Research Laboratories, priority 1996, dated 2001).
“And” between values parts separate entries of the source, which are not always exact repeats. Equal values may be shown once. Read-outs that look alike come from different tables or passages of the source.

Experiments:
human thrombin = molecular target: T1, human thrombin (Homo sapiens, UniProt P00734); assay: Inhibitory activity for thrombin (chromogenic substrate hydrolysis, 405 nm); format: biochemical
T1 construct: purchased Sigma T-6759
How it was run: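 Thrombin: human enzyme (5 units/ml stock, 0.1% BSA) acted for 20 min on N-benzoyl-Phe-Val-Arg-p-nitroanilide in 125 mM NaCl, 50 mM Tris-HCl pH 8.0, with compounds dissolved in 50% methanol. Hydrolysis was read at 405 nm. Selectivity index was trypsin IC50 divided by thrombin IC50.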

[1] = system: thrombin time (TT) in rat plasma; assay: Thrombin time (TT) in rat plasma after oral administration; format: in vivo, SD male rats; conditions: TT after / TT before administration
Protocol: SD male rats weighing 220±20 g which had fasted overnight were used as experimental animals. Blood taken from the hearts of the experimental animals just before administration of the test compound and at 30, 60, 120 and 240 minutes after oral administration of the test compound was mixed with 0.108M sodium citrate in the ratio of 9:1. The mixtures thereby obtained were centrifuged at 15,000 rpm for 5 minutes at 4° C. to separate the plasma, which was stored at -20° C. until the TT was measured by means of the method described below.
200 μl of Owren's buffer was added to 50 μl of the plasma and 100 μl of the diluted plasma thereby obtained was injected into the vial of a coagulometer and then incubated for 2 minutes at 37° C. To each vial was added 100 μl of thrombin at a concentration of 20 U/ml, which had prewarmed at 37° C., to measure the time (TT) until clotting occurred. The ratio of the TT in rat plasma after administration of the test compound to the TT in rat plasma before administration of the test compound was calculated.

[2] = Pharmacokinetic test in rats (intravenous injection and oral administration); format: in vivo, S.D. male rats; conditions: for bioavailability: oral vs intravenous
Protocol: S.D. male rats weighing 200±20 g which had fasted overnight were subjected to cannulation at their femoral veins and arteries. Compound 88 prepared in Example 62 was dissolved in physiological saline and then administered to the rats both by intravenous injection and oral administration. Blood was taken at prescribed intervals of time and then immediately mixed with methanol. The mixture was centrifuged (15,000 rpm, 5 min., 4° C.) to obtain quantitative amount of the supernatant which was then subjected to HPLC in Diode Array Detector at 254 nm to analyse the concentration of the test compound in the blood.

Structure (SMILES): CCn1c(CC[C@@H]2CCCN2C(=O)[C@H]2CCCN2CC(=O)O)cc2ccc(C(=N)N)cc21 [Compound 88, 2-[(R)-2-[[(S)-2-[2-(6-amidino-1-ethylindol-2-yl)ethyl]pyrrolidinyl]carbonyl]pyrrolidinyl]acetic acid]
- Selectivity (trypsin/thrombin) (human thrombin; IC50 for trypsin divided by IC50 for thrombin): 8.1
- IC50 (human thrombin; human thrombin, 20 min, pH 8.0, N-benzoyl-Phe-Val-Arg-p-nitroanilide): 15.9 nM
- Plasma TT ratio after administration to rat ([1]; 30 mg/kg oral): 2.62
- Plasma TT ratio after administration to rat ([1]; 50 mg/kg oral): 7.83
- Blood concentration, individual rats (Rat-1 to Rat-5) ([2]; i.v. 10 mg/kg, 0.000 h): 0 ng/mL
- Blood concentration, individual rats (Rat-1 to Rat-5) ([2]; i.v. 10 mg/kg, 0.033 h, 10 mg/kg, 1.98 min): 11186 ng/mL and 25999 ng/mL and 23841 ng/mL and 28971 ng/mL and 18505 ng/mL
- Blood concentration, individual rats (Rat-1 to Rat-5) ([2]; i.v. 10 mg/kg, 0.083 h, 10 mg/kg, 4.98 min): 11984 ng/mL and 10776 ng/mL and 14222 ng/mL and 11623 ng/mL
- Blood concentration, individual rats (Rat-1 to Rat-5) ([2]; i.v. 10 mg/kg, 0.250 h, 10 mg/kg, 15 min): 2707 ng/mL and 4629 ng/mL and 3531 ng/mL and 5982 ng/mL and 3895 ng/mL
- Blood concentration, individual rats (Rat-1 to Rat-5) ([2]; i.v. 10 mg/kg, 0.500 h, 10 mg/kg, 30 min): 816 ng/mL and 1963 ng/mL and 1685 ng/mL and 2939 ng/mL and 1516 ng/mL
- Blood concentration, individual rats (Rat-1 to Rat-5) ([2]; i.v. 10 mg/kg, 1.000 h, 10 mg/kg, 60 min): 784 ng/mL and 773 ng/mL and 577 ng/mL and 1204 ng/mL and 535 ng/mL
- Blood concentration, individual rats (Rat-1 to Rat-5) ([2]; i.v. 10 mg/kg, 2.000 h, 10 mg/kg): 0 ng/mL
- Blood concentration, individual rats (Rat-1 to Rat-5) ([2]; i.v. 10 mg/kg, 2.000 h, 10 mg/kg, 120 min): 204 ng/mL and 98 ng/mL and 424 ng/mL and 162 ng/mL
- Blood concentration, individual rats (Rat-1 to Rat-5) ([2]; i.v. 10 mg/kg, 4.000 h, 10 mg/kg): 0 ng/mL
- Blood concentration, individual rats (Rat-1 to Rat-5) ([2]; i.v. 10 mg/kg, 4.000 h, 10 mg/kg, 240 min): 121 ng/mL and 55 ng/mL
- Blood concentration, individual rats (Rat-1 to Rat-5) ([2]; i.v. 10 mg/kg, 6.000 h, 10 mg/kg): 0 ng/mL
- Blood concentration, individual rats (Rat-1 to Rat-5) ([2]; i.v. 10 mg/kg, 6.000 h, 10 mg/kg, 360 min): 51 ng/mL
- Blood concentration, individual rats (Rat-1 to Rat-5) ([2]; i.v. 10 mg/kg, 24.000 h): 0 ng/mL
- Blood concentration, individual rats (Rat-1 to Rat-5) ([2]; oral 100 mg/kg, 0.000 h): 0 ng/mL
- Blood concentration, individual rats (Rat-1 to Rat-5) ([2]; oral 100 mg/kg, 0.033 h, 100 mg/kg, 1.98 min): 11186 ng/mL and 25999 ng/mL and 23841 ng/mL and 28971 ng/mL and 18505 ng/mL
- Blood concentration, individual rats (Rat-1 to Rat-5) ([2]; oral 100 mg/kg, 0.083 h, 100 mg/kg, 4.98 min): 11984 ng/mL and 10776 ng/mL and 14222 ng/mL and 11623 ng/mL
- Blood concentration, individual rats (Rat-1 to Rat-5) ([2]; oral 100 mg/kg, 0.250 h, 100 mg/kg, 15 min): 2707 ng/mL and 4629 ng/mL and 3531 ng/mL and 5982 ng/mL and 3895 ng/mL
- Blood concentration, individual rats (Rat-1 to Rat-5) ([2]; oral 100 mg/kg, 0.500 h, 100 mg/kg, 30 min): 816 ng/mL and 1963 ng/mL and 1685 ng/mL and 2939 ng/mL and 1516 ng/mL
- Blood concentration, individual rats (Rat-1 to Rat-5) ([2]; oral 100 mg/kg, 1.000 h, 100 mg/kg, 60 min): 784 ng/mL and 773 ng/mL and 577 ng/mL and 1204 ng/mL and 535 ng/mL
- Blood concentration, individual rats (Rat-1 to Rat-5) ([2]; oral 100 mg/kg, 2.000 h, 100 mg/kg): 0 ng/mL
- Blood concentration, individual rats (Rat-1 to Rat-5) ([2]; oral 100 mg/kg, 2.000 h, 100 mg/kg, 120 min): 204 ng/mL and 98 ng/mL and 424 ng/mL and 162 ng/mL
- Blood concentration, individual rats (Rat-1 to Rat-5) ([2]; oral 100 mg/kg, 4.000 h, 100 mg/kg): 0 ng/mL
- Blood concentration, individual rats (Rat-1 to Rat-5) ([2]; oral 100 mg/kg, 4.000 h, 100 mg/kg, 240 min): 121 ng/mL and 55 ng/mL
- Blood concentration, individual rats (Rat-1 to Rat-5) ([2]; oral 100 mg/kg, 6.000 h, 100 mg/kg): 0 ng/mL
- Blood concentration, individual rats (Rat-1 to Rat-5) ([2]; oral 100 mg/kg, 6.000 h, 100 mg/kg, 360 min): 51 ng/mL
- Blood concentration, individual rats (Rat-1 to Rat-5) ([2]; oral 100 mg/kg, 24.000 h): 0 ng/mL
- concentration at 0.083 h ([2]; rat, blood, iv, 10 mg/kg, i.v. 10 mg/kg, 0.083 h, read-out: Blood concentration, individual rats (Rat-1 to Rat-5)): 8790 ng/mL
- concentration at 6 h ([2]; rat, blood, iv, 10 mg/kg, i.v. 10 mg/kg, 6.000 h, read-out: Blood concentration, individual rats (Rat-1 to Rat-5)): 90 ng/mL
- concentration at 0.033 h ([2]; rat, blood, iv, 10 mg/kg, rats, i.v. 10 mg/kg, 0.033 h): 21700 ng/mL
- concentration at 0.083 h ([2]; rat, blood, iv, 10 mg/kg, rats, i.v. 10 mg/kg, 0.083 h, read-out: Blood concentration, Mean): 11500 ng/mL
- concentration at 0.25 h ([2]; rat, blood, iv, 10 mg/kg, rats, i.v. 10 mg/kg, 0.250 h): 4150 ng/mL
- concentration at 0.5 h ([2]; rat, blood, iv, 10 mg/kg, rats, i.v. 10 mg/kg, 0.500 h): 1780 ng/mL
- concentration at 1 h ([2]; rat, blood, iv, 10 mg/kg, rats, i.v. 10 mg/kg, 1.000 h): 775 ng/mL
- concentration at 2 h ([2]; rat, blood, iv, 10 mg/kg, rats, i.v. 10 mg/kg, 2.000 h): 178 ng/mL
- concentration at 4 h ([2]; rat, blood, iv, 10 mg/kg, rats, i.v. 10 mg/kg, 4.000 h): 35 ng/mL
- concentration at 6 h ([2]; rat, blood, iv, 10 mg/kg, rats, i.v. 10 mg/kg, 6.000 h, read-out: Blood concentration, Mean): 28 ng/mL
- concentration at 0.083 h ([2]; rat, blood, po, 100 mg/kg, oral 100 mg/kg, 0.083 h, read-out: Blood concentration, individual rats (Rat-1 to Rat-5)): 8790 ng/mL
- concentration at 6 h ([2]; rat, blood, po, 100 mg/kg, oral 100 mg/kg, 6.000 h, read-out: Blood concentration, individual rats (Rat-1 to Rat-5)): 90 ng/mL
- concentration at 0.033 h ([2]; rat, blood, po, 100 mg/kg, rats, oral 100 mg/kg, 0.033 h): 21700 ng/mL
- concentration at 0.083 h ([2]; rat, blood, po, 100 mg/kg, rats, oral 100 mg/kg, 0.083 h, read-out: Blood concentration, Mean): 11500 ng/mL
- concentration at 0.25 h ([2]; rat, blood, po, 100 mg/kg, rats, oral 100 mg/kg, 0.250 h): 4150 ng/mL
- concentration at 0.5 h ([2]; rat, blood, po, 100 mg/kg, rats, oral 100 mg/kg, 0.500 h): 1780 ng/mL
- concentration at 1 h ([2]; rat, blood, po, 100 mg/kg, rats, oral 100 mg/kg, 1.000 h): 775 ng/mL
- concentration at 2 h ([2]; rat, blood, po, 100 mg/kg, rats, oral 100 mg/kg, 2.000 h): 178 ng/mL
- concentration at 4 h ([2]; rat, blood, po, 100 mg/kg, rats, oral 100 mg/kg, 4.000 h): 35 ng/mL
- concentration at 6 h ([2]; rat, blood, po, 100 mg/kg, rats, oral 100 mg/kg, 6.000 h, read-out: Blood concentration, Mean): 28 ng/mL
- bioavailability ([2]; rat, blood, po, rats, read-out: Bioavailability): 32.6%
- half-life ([2]; rat, blood, rats, mean ± error, read-out: Elimination Half-life (converted)): 1.07 ± 0.27 h
- half-life ([2]; rat, blood, rats, read-out: elimination half-time): 1.07 h
- Blood concentration, Mean ([2]; rats, i.v. 10 mg/kg, 0.000 h): 0 ng/mL
- Blood concentration, Mean ([2]; rats, i.v. 10 mg/kg, 24.000 h): 0 ng/mL
- distribution and disappearance after intravenous injection ([2]; rats, intravenous injection): rapidly distributed in the body and slowly disappeared
- Blood concentration, Mean ([2]; rats, oral 100 mg/kg, 0.000 h): 0 ng/mL
- Blood concentration, Mean ([2]; rats, oral 100 mg/kg, 24.000 h): 0 ng/mL
- bioavailability ([2]; rats): 32.62 ± 7.69%
